Measured values: ChEMBL document CHEMBL1201862, “PubChem BioAssay data set” (2004)
Active and inactive are the calls of the source.

What was measured:
[1] = target: Peroxisome proliferator-activated receptor gamma/Nuclear receptor coactivator 2 (Homo sapiens, UniProt P37231); format: functional;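 note: agonist potency for raising coactivator recruitment to the receptor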
[2] = target: Peroxisome proliferator-activated receptor gamma/Nuclear receptor coactivator 1 (Homo sapiens, UniProt P37231); format: functional;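 note: agonist potency as compounds enhance coactivator SRC-1 recruitment to PPARgamma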
Peroxisome proliferator-activated receptor gamma/Nuclear receptor coactivator 1, sequence (P37231 whole entry): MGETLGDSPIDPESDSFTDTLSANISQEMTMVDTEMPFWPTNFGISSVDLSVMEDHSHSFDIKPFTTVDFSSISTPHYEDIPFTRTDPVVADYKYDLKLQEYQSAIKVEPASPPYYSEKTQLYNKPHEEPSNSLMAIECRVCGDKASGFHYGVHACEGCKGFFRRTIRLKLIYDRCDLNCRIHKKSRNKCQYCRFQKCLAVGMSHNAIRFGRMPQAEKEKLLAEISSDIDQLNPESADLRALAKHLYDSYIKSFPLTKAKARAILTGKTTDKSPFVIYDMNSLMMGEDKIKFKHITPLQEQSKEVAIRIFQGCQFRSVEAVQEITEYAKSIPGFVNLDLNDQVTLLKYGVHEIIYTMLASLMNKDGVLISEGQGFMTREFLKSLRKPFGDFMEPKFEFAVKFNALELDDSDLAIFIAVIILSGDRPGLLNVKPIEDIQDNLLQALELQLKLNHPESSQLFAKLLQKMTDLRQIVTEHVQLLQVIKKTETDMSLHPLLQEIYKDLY
Peroxisome proliferator-activated receptor gamma/Nuclear receptor coactivator 1, sequence (Q15788 whole entry, further chain): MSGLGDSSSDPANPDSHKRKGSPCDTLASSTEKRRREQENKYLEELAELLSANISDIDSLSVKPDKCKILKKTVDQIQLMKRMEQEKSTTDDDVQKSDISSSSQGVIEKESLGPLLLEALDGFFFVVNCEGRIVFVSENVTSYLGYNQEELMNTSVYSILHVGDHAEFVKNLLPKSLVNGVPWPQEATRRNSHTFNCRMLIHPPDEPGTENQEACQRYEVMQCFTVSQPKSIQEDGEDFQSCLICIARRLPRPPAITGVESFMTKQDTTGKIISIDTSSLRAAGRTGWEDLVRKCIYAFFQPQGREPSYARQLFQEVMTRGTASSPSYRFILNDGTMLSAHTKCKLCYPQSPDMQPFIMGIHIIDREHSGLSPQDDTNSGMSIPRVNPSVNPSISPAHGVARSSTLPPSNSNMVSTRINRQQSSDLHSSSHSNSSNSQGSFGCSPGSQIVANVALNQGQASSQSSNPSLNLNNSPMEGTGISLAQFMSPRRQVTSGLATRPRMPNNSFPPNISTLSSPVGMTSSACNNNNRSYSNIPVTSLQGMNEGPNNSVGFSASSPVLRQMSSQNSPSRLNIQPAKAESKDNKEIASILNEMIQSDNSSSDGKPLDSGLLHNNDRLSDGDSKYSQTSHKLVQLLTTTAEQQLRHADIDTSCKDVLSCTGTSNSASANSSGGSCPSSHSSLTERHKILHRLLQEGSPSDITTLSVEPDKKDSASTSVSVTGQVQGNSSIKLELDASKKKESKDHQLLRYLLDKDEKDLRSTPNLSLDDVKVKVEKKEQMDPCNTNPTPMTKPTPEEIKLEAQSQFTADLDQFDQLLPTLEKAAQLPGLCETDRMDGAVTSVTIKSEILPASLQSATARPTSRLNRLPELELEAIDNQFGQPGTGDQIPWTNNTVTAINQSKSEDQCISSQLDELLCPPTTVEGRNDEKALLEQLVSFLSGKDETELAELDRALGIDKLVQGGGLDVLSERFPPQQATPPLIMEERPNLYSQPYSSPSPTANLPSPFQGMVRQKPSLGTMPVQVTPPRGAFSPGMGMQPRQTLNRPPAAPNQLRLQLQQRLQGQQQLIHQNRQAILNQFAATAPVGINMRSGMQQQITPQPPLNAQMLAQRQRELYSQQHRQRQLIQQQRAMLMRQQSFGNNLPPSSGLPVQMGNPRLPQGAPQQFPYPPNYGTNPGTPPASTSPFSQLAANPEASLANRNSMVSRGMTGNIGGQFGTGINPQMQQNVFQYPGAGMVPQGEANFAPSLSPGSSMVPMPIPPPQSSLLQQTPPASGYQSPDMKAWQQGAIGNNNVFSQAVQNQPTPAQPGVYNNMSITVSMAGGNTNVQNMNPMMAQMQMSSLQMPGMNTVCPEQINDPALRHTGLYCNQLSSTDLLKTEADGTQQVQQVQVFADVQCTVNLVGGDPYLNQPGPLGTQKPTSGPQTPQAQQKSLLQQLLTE

[3] = target: Peroxisome proliferator-activated receptor gamma/Nuclear receptor coactivator 3 (Homo sapiens, UniProt P37231); format: functional;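 note: agonist potency for raising coactivator recruitment to the receptor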
Estrogen receptor beta = Estrogen receptor beta (Homo sapiens, UniProt Q92731); experiment: ERβ–SRC-3 coactivator interaction inhibitors, confirmation, orthogonal assay, biochemical, ELISA, streptavidin-HRP readout (AID 1060)
[4] = target: DNA dC->dU-editing enzyme APOBEC-3G (Homo sapiens, UniProt Q9HC16); experiment: Dose Response confirmation of small molecule APOBEC3G DNA Deaminase Inhibitors via a fluorescence-based single-stranded DNA deaminase assay. [Related pubchem assays (depositor defined):AID493012, AID493028]; format: functional
DNA dC->dU-editing enzyme APOBEC-3G, sequence (Q9HC16 whole entry): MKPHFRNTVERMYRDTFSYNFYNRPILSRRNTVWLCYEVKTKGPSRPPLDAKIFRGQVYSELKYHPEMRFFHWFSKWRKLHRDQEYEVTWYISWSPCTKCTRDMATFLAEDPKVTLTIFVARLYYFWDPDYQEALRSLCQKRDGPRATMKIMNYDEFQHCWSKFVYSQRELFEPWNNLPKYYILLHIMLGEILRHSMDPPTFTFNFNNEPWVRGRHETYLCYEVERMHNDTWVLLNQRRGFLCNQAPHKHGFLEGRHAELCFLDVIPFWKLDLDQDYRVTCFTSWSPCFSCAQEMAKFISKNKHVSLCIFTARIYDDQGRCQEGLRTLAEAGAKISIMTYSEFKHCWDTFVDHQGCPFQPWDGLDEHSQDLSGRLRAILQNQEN

Coagulation factor XII = target: T1, Coagulation factor XII (Homo sapiens, UniProt P00748); format: functional;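 note: activated factor XIIa alpha cleaving a fluorogenic AMC peptide substrate; inhibitor potency from loss of enzyme activity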
T1 sequence (P00748 whole entry): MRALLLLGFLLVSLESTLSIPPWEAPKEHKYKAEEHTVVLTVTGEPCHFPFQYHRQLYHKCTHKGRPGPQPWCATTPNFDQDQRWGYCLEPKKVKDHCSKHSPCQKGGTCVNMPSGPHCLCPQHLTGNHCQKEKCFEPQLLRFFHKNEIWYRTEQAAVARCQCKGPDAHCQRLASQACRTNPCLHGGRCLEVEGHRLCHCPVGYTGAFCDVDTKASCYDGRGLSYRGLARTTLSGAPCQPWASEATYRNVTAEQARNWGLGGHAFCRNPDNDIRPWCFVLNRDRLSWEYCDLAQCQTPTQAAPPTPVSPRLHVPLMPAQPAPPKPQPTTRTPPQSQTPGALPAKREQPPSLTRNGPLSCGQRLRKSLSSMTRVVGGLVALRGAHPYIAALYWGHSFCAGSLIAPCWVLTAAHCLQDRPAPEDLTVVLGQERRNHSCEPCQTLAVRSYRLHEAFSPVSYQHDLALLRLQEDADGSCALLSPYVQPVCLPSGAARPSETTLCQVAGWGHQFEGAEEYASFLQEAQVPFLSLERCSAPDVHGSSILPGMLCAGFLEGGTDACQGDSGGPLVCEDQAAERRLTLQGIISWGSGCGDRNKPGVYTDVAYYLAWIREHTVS

[5] = inhibitors of firefly luciferase expression or activity, dose response, H4 neuroglioma cells, luminescence (AID 1990); format: functional, cell-based
[6] = Luminescence Cell-Based Dose Response HTS to Identify Inhibitors of 5'UTR Stem-Loop Driven Prion Protein mRNA Translation in H4 Neuroglioblastoma Cells. [Related pubchem assays: 1827 (Project Summary), 1813 (Primary HTS)]; format: functional
[7] = inhibitors of SNCA 5'UTR-driven reporter translation, confirmation, H4 neuroglioma cells, luminescence (AID 1988); format: functional, cell-based
[8] = inhibitors of intracellular T. cruzi replication, confirmation, NIH3T3 host cells, beta-gal luminescence (AID 2044); format: functional, cell-based;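 note: intracellular parasites grown in NIH/3T3 mouse fibroblasts as host cells; luminescent beta-galactosidase reporter signal from transgenic T. cruzi replicating inside host cells; inhibitors lower the luminescence signal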
[9] = cytotoxicity toward NIH3T3 fibroblasts, dose response, counter-screen, cell-based, ATP luminescence, mouse fibroblasts (AID 2010); format: functional;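 note: cells exposed to compound for about 90 hours before reading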
[10] = cytotoxicity in HEK-293T cells, dose response, cytotoxicity control for TCR NF-kB inhibitor project, luminescence, T-cell screen hits (AID 489026); format: functional, cell-based;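 note: cells exposed to compound about 14 hours before the viability readout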
INS1 = experiment: beta cell apoptosis inhibitors, cytokine rescue, dose response, luminescence, retest (AID 449756); format: functional, cell-based; conditions: Rattus norvegicus;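 note: cell death triggered by IL-1 beta plus TNF-alpha plus IFN-gamma mixture; protective hits raise ATP signal compared with cytokine alone wells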
[11] = target: T2, COUP transcription factor 2 (Homo sapiens, UniProt P24468); experiment: Luminescence-based cell-based high throughput dose response assay to identify inhibitors of COUP-TFII (NR2F2).; format: functional;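 note: HEK293 cells transiently cotransfected with COUP-TFII expression vector and reporter; luciferase reporter luminescence driven by COUP-TFII from the pX2-168 reporter plasmid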
T2 sequence (P24468 whole entry): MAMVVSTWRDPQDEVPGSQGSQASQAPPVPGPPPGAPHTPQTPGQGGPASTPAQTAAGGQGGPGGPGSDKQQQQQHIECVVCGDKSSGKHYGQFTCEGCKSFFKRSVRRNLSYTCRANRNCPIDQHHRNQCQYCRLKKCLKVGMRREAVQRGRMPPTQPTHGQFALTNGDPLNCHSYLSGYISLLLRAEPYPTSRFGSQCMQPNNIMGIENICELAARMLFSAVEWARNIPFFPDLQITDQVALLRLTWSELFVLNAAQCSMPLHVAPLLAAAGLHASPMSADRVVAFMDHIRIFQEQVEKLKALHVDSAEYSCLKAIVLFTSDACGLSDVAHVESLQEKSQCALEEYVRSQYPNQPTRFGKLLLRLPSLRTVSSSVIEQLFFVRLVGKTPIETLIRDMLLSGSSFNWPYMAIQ

[12] = target: Voltage-gated N-type calcium channel alpha-1B subunit/Amyloid beta A4 precursor protein-binding family A member 1 (Homo sapiens, UniProt Q00975+Q02410); experiment: disruptors of Mint-PDZ/N-type channel peptide interaction – biochemical, HTRF, set 2, SAR follow-up (AID 434980); format: functional
[13] = target: Voltage-dependent T-type calcium channel subunit alpha-1H (Homo sapiens, UniProt O95180); format: functional;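 note: channel activity triggered by adding a high calcium stimulation buffer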
Paired box protein Pax-8 = Paired box protein Pax-8 (Homo sapiens, UniProt Q06710); experiment: inhibitors of PAX8-driven TPO luciferase reporter, dose response, RMG-I cells, cherry-pick (AID 687027); format: functional, cell-based;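 note: luciferase reporter driven by Pax8 target thyroperoxidase promoter measured by SteadyGlo luminescence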
Paired box protein Pax-8, sequence (Q06710 whole entry): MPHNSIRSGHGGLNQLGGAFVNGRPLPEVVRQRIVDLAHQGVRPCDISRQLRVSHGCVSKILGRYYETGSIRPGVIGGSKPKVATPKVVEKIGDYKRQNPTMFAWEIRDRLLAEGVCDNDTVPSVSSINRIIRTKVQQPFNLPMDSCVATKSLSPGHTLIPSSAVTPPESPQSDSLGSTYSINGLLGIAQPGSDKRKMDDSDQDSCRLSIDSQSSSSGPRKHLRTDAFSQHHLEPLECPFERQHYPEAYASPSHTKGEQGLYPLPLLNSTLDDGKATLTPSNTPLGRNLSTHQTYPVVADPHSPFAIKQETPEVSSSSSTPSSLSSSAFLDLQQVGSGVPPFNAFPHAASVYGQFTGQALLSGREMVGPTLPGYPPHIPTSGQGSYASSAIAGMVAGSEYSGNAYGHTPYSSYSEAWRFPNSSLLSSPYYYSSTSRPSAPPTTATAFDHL

[14] = NIH:OVCAR-3 ovarian cancer cell cytotoxicity, dose response, PAX8 inhibitor project, plate reader, dry powder samples (AID 743044); format: functional, cell-based
[15] = cytotoxicity in OVCAR8 ovarian cancer cells, dose response, PAX8 project, cell-based, plate reader, dry powder samples (AID 743197); format: functional; conditions: OVCAR-8
cells [16] = format: functional, cell-based
cells [17] = format: functional, cell-based; remark: listed apart in the source
HEK293 [18] = experiment: cells; conditions: Homo sapiens
HEK293 [19] = experiment: cells; conditions: Homo sapiens; remark: listed apart in the source
Caspase-6 = target: T3, Caspase-6 (Homo sapiens, UniProt P55212); experiment: human caspase-6 inhibitors, dose response, biochemical, VEID-R110 fluorescence, cherry-pick (AID 720632)
T3 sequence (P55212 whole entry): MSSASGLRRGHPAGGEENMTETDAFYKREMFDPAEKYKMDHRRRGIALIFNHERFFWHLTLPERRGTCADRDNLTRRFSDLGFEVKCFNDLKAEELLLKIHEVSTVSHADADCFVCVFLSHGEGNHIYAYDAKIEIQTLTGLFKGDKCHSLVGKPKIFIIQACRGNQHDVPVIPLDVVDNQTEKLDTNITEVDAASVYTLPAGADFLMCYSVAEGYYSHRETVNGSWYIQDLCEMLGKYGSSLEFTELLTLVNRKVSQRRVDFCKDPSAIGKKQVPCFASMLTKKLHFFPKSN

Peroxisome proliferator-activated receptor gamma/Nuclear receptor coactivator 2, sequence (P37231 whole entry): as the sequence (P37231 whole entry) above
Peroxisome proliferator-activated receptor gamma/Nuclear receptor coactivator 2, sequence (Q15596 whole entry, further chain): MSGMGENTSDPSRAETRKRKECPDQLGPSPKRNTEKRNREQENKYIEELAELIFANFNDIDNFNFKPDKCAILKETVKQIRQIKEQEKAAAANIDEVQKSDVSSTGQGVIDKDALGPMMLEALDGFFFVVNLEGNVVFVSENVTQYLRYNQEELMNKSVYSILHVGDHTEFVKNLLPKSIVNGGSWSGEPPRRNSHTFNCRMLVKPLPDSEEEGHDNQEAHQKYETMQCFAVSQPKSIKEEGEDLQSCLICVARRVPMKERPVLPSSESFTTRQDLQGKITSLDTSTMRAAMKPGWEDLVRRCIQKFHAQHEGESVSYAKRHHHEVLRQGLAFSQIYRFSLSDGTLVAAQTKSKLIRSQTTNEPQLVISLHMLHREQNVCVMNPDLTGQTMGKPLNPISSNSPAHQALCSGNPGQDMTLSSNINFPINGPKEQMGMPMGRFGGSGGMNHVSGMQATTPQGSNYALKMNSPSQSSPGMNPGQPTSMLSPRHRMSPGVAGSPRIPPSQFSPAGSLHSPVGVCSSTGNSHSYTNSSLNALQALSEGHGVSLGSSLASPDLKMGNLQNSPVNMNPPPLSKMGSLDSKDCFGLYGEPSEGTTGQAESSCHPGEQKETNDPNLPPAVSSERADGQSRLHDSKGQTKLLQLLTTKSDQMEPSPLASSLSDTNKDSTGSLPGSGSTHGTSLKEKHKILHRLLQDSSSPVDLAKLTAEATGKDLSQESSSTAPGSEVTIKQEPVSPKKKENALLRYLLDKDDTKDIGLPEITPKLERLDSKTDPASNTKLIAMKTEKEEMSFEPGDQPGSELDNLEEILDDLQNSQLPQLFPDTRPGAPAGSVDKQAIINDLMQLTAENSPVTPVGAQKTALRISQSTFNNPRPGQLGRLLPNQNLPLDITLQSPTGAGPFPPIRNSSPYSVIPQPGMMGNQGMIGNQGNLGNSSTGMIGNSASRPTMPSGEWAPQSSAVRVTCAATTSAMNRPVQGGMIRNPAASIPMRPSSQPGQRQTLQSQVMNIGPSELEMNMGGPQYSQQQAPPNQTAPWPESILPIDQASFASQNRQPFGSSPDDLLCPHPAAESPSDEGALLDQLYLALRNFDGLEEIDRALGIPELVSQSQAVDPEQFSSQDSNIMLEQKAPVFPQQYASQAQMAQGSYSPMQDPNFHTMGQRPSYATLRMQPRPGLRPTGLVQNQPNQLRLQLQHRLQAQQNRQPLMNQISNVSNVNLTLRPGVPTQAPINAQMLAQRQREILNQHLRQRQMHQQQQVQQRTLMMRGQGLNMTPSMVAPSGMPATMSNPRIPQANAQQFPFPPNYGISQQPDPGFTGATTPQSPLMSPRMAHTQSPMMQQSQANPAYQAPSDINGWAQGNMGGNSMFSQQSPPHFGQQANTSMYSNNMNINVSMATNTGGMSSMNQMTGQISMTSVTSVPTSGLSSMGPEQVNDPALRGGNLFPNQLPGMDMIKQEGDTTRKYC

N#Cc1cc2c(nc1SCc1ccccc1)CCC2
EC50 [1]: 45.2 µM (not active) | EC50 [2]: 41 µM (not active) | EC50 [3]: 56.6 µM (not active) | IC50 (Estrogen receptor beta): 0.0254 µM (not active)

Nc1ccccc1SC(C[N+](=O)[O-])c1ccccc1 (centres undefined)
IC50 [4]: 28.2 µM (active)

CCC(C)NC(=O)CSc1ncnc2sccc12 (centres undefined)
IC50 (Coagulation factor XII): > 50 µM (inactive)

COc1cc(/C=N/n2c(S)nnc2-c2ccccc2)cc(OC)c1O
IC50 [4]: > 100 µM (inactive)

N=c1ccn(CC(=O)c2ccc(-c3ccccc3)cc2)cc1
EC50 [5]: 9.17 µM (active) | EC50 [6]: 12.3 µM (active) | EC50 [7]: 7.33 µM (active) | EC50 [8]: 2.01 µM (active) | EC50 [9]: > 60 µM (not active) | IC50 [10]: > 80 µM (inactive) | AC50 (INS1): 1.46 µM (active) | IC50 [11]: 9.15 µM (active)

O=C(N[C@@H]1C[C@H]1c1ccccc1)c1cc(-c2ccco2)nc2ccccc12
IC50 [12]: 46.4 µM (active)

CC(C)(C)n1ncc2c(=O)n(CC(=O)Nc3ccc(Cl)cc3)cnc21
EC50 [13]: 4.08 µM (active)

O=C(CSc1nnc(CNC(=O)c2cccs2)o1)Nc1cccc(C(F)(F)F)c1
EC50 [13]: 4.46 µM (active)

CCO/C(O)=C1\C(C)=NC(=S)N(C(C)=O)C1c1ccc(OC)c(OC)c1 (centres undefined)
IC50 (Coagulation factor XII): > 50 µM (inactive)

C[C@@H]1CCCCO[C@@H](CN(C)C(=O)Nc2ccc(C(F)(F)F)cc2)[C@H](C)CN([C@H](C)CO)C(=O)c2cc(NS(=O)(=O)c3ccc(Cl)cc3)ccc2O1
AC50 (Paired box protein Pax-8): 3.25 µM (active) | AC50 [14]: 27.8 µM (active) | AC50 [15]: 32 µM (active)

Cc1noc(C)c1S(=O)(=O)Nc1ccc2c(c1)C(=O)N([C@H](C)CO)C[C@H](C)[C@@H](CN(C)C(=O)Nc1ccc(C(F)(F)F)cc1)OCCCC[C@H](C)O2
AC50 (Paired box protein Pax-8): 9.4 µM (active) | AC50 [14]: < 0.26 µM (active) | AC50 [15]: > 70 µM (inactive)

COc1cc(C2CC(=O)N3CN(Cc4ccccc4)CSC3=C2C#N)ccc1OCc1ccccc1 (centres undefined)
EC50 [1]: > 79.4 µM (not active) | EC50 [2]: > 79.4 µM (not active) | EC50 [3]: > 79.4 µM (not active) | EC50 (cells [16]): > 350 µM (not active) | EC50 (cells [17]): 40.3 µM (active)

CC(C)(C)c1ccc(CNC(=O)c2cc(-c3ccco3)nc3ccccc23)cc1
IC50 [12]: 39.5 µM (active)

CCOc1ccc(N(CC(=O)Nc2cc(C)ccc2C)S(=O)(=O)c2c(C)nc(O)nc2O)cc1
IC50 (Coagulation factor XII): > 50 µM (inactive)

COc1ccc(C2C=C(C34CC5CC(CC(C5)C3)C4)N=C(S)N2)cc1OC (centres undefined)
EC50 (HEK293 [18]): > 59.6 µM (inactive) | EC50 (HEK293 [19]): > 59.6 µM (inactive)

CCOC(=O)C1=NN(c2cccc(Cl)c2)C2=NC(C)=C(C(=O)OC)C(c3cccs3)N12 (centres undefined)
EC50 [1]: > 79.4 µM (not active) | EC50 [2]: > 79.4 µM (not active) | EC50 [3]: > 79.4 µM (not active)

O=C(O)c1cc([N+](=O)[O-])cc2c1C=Cc1ccccc1O2
AC50 (Caspase-6): 37.5 µM (active)

CCC1=NN(C(=O)Cc2ccc([N+](=O)[O-])cc2)C(O)(C(F)(F)F)C1 (centres undefined)
IC50 (Coagulation factor XII): > 50 µM (inactive)
